# Data taken from ChEMBL document CHEMBL1201862, “PubChem BioAssay data set” (2004).
# The source made the active and inactive calls.
# Key:
# [1] = general mammalian cell viability loss – inhibitor set, cherry-pick, set 2, cytotoxicity control for miR-122 modulator project, dose response (AID 720697); type: functional, cell-based
# [2] = microbe, parasite or virus in culture; type: functional; details: Mycobacterium tuberculosis
# [3] = viability of uninfected HEp-2 cells – cell-based, HTS, cytotoxicity control for RSV inhibitor project, dose response (AID 2410); type: functional; details: human respiratory syncytial virus
# [4] = target: Eukaryotic translation initiation factor 4E (Mus musculus, UniProt P63073); experiment: blockers of eIF4G binding by eIF4E – biochemical, TR-FRET, dose response (AID 855); type: functional;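 further: potency for disrupting eIF4E binding to eIF4GI seen as loss of FRET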
# Sequence of Eukaryotic translation initiation factor 4E (P63073 whole entry): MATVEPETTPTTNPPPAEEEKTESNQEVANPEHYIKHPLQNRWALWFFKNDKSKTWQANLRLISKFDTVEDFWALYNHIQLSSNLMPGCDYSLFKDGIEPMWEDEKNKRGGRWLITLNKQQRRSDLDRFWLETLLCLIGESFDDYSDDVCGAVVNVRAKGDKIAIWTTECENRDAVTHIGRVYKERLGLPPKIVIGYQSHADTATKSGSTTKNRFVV
# [5] = target: T1, Mannose-6-phosphate isomerase (Homo sapiens, UniProt P34949); experiment: MPI inhibition at elevated mannose 6-phosphate – biochemical, fluorescence intensity, high mannose 6-phosphate, primary screen (AID 1220)
# T1 sequence (P34949 whole entry): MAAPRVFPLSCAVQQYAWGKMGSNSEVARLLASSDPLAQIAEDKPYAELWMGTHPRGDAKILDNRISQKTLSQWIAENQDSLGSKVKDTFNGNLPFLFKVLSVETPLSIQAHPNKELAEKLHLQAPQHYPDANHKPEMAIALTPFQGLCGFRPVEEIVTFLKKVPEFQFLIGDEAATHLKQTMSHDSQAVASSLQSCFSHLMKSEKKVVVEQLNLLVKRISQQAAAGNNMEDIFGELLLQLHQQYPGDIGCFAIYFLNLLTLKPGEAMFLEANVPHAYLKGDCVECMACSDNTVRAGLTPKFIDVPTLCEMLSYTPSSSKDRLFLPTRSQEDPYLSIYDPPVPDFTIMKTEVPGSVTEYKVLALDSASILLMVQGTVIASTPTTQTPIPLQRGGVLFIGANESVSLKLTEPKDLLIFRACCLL
# [6] = viability of HCT116 lacking mutant beta-catenin – cell-based, human colon tumor, dose response (AID 1045); type: functional;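 further: HCT116 colon tumor cells with beta catenin knocked out; cells exposed to compound for 60 hours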
# [7] = viability of PTEN-deleted HCT116 cells – cell-based, HCT116 PTEN knockout, dose response (AID 1047); type: functional;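 further: HCT116 colon tumor cells with PTEN knocked out; cells exposed to compound for 60 hours before readout; potency for loss of cell viability measured by luminescence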
# [8] = target: T2, Leucine aminopeptidase (Plasmodium falciparum 3D7, UniProt Q8IL11); experiment: P. falciparum M17LAP inhibitors, primary screen, biochemical, fluorogenic H-Leu-NHMec substrate, 1536-well (AID 1619); type: functional
# T2 sequence (Q8IL11 whole entry): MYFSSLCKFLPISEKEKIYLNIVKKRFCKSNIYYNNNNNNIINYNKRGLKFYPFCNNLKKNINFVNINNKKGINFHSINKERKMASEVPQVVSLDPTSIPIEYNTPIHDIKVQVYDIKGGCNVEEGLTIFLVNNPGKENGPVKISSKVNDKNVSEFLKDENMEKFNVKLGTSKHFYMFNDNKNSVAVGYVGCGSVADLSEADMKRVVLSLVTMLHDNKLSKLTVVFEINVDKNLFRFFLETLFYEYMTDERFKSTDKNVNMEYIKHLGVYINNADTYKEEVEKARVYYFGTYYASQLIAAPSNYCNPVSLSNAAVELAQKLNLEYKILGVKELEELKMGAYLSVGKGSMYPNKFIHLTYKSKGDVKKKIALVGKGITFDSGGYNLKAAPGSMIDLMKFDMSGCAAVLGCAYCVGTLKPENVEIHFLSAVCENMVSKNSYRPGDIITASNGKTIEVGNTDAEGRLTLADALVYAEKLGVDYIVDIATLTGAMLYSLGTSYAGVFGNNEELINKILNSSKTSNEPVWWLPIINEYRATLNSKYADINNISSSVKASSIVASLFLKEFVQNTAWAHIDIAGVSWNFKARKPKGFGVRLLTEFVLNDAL
# [9] = blockade of melanocortin 4 receptor signaling – cell-based, plate reader, cherry pick, counter-screen for LGR2 antagonist project, dose response (AID 743444); type: functional;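 further: transfected HEK 293 cells stimulated with alpha-MSH peptide; potency of inhibitors of the alpha-MSH evoked signal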
# [10] = blockers of bursicon-stimulated LGR2 cAMP reporter – cell-based, HEK293, CRE-luciferase reporter, cherry pick, set 2, dose response (AID 743343); type: functional;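 further: transfected cells were stimulated with diluted bursicon conditioned medium after compound addition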
# [11] = target: T3, Heat shock factor protein 1 (Mus musculus, UniProt P38532); experiment: enhancement of HSF1-driven luciferase signal – cell-based, NIH3T3, luminescence, dose retest, confirmation (AID 435004); type: functional;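 further: stress induced by proteasome inhibitor MG132 added 30 min after compound; luciferase reporter driven by HSF1 response element in NIH3T3 cells; actives raise luminescence as potentiators of the MG132 stress response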
# T3 sequence (P38532 whole entry): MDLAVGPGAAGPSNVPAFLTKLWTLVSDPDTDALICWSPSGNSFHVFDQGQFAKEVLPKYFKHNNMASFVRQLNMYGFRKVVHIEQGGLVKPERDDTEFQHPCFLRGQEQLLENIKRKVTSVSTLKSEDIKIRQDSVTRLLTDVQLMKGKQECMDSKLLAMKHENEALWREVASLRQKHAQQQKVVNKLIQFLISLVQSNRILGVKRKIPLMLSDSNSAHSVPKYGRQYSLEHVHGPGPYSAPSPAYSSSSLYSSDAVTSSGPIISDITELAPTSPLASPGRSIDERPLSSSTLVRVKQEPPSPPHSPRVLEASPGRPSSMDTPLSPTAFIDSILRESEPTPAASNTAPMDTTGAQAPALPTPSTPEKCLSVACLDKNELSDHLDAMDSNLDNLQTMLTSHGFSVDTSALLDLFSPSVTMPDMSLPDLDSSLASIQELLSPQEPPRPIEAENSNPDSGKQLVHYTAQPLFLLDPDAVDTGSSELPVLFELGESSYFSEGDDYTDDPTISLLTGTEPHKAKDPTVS
# [12] = A549 cell cytotoxicity, dose response, cytotoxicity control, plate reader, cherry-pick, antagonist series (AID 743412); type: functional, cell-based
# [13] = Luminescence Cell-Based Dose Response HTS to Identify Inhibitors of 5'UTR Stem-Loop Driven Prion Protein mRNA Translation in H4 Neuroglioblastoma Cells. [Related pubchem assays: 1827 (Project Summary), 1813 (Primary HTS)]; type: functional
# [14] = alpha-synuclein stem-loop luciferase translation blockers – H4 neuroglioma cells, luminescence, confirmation (AID 1988); type: functional, cell-based
# [15] = luciferase reporter signal suppression in cells – H4 neuroglioma cells, luminescence, dose response (AID 1990); type: functional, cell-based
# [16] = target: T4, Low molecular weight phosphotyrosine protein phosphatase (Homo sapiens, UniProt P24666); type: functional; details: read-out: IC50_Mean;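 further: Dose-response confirmation assay measuring inhibition of LMPTP enzyme activity by fluorescence intensity read-out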
# T4 sequence (P24666 whole entry): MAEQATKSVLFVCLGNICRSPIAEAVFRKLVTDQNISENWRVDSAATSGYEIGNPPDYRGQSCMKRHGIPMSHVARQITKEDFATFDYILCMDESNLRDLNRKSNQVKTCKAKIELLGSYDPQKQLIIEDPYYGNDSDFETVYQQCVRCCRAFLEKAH
# [17] = target: Cytochrome P450 2C9 (Homo sapiens, UniProt P11712)
# Sequence of Cytochrome P450 2C9 (P11712 whole entry): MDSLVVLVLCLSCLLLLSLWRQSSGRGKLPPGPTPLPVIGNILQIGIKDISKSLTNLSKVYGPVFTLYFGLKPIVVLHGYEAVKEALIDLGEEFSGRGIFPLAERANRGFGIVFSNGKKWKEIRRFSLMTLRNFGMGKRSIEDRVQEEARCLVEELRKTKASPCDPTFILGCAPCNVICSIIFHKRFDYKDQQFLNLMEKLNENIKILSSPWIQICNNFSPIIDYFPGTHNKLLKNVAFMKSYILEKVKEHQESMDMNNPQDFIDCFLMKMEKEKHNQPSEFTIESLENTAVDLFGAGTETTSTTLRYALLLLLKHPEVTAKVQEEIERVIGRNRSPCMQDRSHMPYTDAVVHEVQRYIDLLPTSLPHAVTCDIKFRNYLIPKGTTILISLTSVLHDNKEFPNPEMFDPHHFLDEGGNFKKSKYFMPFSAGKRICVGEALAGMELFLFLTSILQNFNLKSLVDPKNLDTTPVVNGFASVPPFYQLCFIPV
# [18] = target: T5, Rac GTPase-activating protein 1 (Homo sapiens, UniProt Q9H0H5); experiment: blockers of MgcRacGAP-driven Rac1 GTP hydrolysis – biochemical, ADP Hunter fluorescence, primary and confirmatory, confirmation (AID 624330); type: functional
# T5 sequence (Q9H0H5 whole entry): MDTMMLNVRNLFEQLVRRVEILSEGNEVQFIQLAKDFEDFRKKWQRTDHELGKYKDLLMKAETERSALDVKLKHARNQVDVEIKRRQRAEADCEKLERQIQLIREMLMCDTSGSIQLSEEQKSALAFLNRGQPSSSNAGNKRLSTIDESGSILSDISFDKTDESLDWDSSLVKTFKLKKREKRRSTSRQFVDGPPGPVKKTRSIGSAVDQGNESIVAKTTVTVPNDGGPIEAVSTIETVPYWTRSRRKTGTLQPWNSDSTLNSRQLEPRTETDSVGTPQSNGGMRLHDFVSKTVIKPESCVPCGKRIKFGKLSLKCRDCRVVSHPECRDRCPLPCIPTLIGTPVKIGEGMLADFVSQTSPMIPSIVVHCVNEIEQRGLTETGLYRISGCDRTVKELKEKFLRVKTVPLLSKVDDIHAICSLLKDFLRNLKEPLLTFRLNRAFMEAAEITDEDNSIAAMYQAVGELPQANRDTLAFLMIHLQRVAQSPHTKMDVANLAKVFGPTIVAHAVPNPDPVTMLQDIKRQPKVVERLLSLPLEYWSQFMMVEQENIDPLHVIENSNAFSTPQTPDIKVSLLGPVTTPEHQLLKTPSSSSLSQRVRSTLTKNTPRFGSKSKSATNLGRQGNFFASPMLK
# [19] = target: Genome polyprotein (dengue virus type 2, UniProt P29990); experiment: flavivirus cap methylation enzyme inhibition – biochemical, confirmation dose response, primary screen (AID 588689); type: functional
# Sequence of Genome polyprotein (P29990 2492-3391 limits assumed): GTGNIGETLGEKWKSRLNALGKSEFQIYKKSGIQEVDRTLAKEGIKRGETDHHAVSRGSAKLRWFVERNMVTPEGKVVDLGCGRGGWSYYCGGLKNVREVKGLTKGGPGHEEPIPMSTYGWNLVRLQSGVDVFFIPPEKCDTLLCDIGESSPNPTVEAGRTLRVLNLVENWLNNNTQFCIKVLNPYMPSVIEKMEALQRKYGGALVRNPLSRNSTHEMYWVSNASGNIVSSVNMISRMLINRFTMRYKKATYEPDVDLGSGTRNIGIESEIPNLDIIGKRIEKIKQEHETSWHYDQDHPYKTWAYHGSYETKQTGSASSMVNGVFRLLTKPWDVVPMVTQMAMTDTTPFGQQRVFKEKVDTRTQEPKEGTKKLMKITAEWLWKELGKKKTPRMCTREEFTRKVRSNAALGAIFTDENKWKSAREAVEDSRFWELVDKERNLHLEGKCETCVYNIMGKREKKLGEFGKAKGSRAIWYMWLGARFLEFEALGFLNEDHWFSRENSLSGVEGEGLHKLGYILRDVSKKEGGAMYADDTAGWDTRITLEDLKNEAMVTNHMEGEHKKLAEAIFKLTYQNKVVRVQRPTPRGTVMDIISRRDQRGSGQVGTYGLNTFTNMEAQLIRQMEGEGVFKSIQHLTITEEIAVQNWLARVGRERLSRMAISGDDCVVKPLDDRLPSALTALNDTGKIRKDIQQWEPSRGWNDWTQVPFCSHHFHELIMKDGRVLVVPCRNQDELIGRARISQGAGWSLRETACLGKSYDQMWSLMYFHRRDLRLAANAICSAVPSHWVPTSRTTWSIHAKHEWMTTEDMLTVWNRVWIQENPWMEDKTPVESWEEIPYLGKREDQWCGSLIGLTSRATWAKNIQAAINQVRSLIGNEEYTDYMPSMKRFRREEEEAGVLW
# [20] = target: T6, Aminopeptidase N (Plasmodium falciparum FcB1/Columbia, UniProt O96935); experiment: malaria alanyl aminopeptidase activity blockers – biochemical, fluorogenic H-Leu-NHMec substrate, 1536-well (AID 1445); parameters: species or system Plasmodium falciparum 3D7, 3D7
# T6 sequence (O96935 whole entry): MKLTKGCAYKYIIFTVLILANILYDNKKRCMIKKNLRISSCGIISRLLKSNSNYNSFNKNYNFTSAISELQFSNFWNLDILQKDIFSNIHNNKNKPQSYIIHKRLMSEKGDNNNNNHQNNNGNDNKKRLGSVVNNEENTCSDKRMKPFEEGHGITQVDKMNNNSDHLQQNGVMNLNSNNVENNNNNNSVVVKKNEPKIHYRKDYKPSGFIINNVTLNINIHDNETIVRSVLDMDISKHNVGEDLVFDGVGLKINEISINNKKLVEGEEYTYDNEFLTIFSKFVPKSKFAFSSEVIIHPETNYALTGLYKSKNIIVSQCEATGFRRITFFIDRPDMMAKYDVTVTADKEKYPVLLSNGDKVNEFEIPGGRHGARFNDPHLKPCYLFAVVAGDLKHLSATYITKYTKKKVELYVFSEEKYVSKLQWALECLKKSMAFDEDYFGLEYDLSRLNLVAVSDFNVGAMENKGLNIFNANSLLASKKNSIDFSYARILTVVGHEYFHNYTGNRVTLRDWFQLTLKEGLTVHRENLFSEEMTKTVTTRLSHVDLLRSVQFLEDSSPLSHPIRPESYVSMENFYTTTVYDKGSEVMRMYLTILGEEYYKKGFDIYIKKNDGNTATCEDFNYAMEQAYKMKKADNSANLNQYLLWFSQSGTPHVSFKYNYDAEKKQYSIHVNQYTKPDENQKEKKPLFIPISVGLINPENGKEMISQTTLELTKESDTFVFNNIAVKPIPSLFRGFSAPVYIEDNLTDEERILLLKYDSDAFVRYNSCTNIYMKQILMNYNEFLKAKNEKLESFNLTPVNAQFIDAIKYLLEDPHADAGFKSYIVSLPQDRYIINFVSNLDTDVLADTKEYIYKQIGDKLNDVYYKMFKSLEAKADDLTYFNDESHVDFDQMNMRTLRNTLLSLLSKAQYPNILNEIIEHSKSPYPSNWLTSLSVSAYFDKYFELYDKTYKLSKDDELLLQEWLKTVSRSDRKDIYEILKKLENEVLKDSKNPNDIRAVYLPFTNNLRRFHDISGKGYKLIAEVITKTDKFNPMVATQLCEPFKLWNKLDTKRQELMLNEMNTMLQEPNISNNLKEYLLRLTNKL
# [21] = target: Large T antigen (Simian virus 40, UniProt P03070); type: functional, Betapolyomavirus macacae;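 further: Confirmatory-stage PubChem screen for compounds that inhibit SV40 T antigen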
# Sequence of Large T antigen (P03070 whole entry): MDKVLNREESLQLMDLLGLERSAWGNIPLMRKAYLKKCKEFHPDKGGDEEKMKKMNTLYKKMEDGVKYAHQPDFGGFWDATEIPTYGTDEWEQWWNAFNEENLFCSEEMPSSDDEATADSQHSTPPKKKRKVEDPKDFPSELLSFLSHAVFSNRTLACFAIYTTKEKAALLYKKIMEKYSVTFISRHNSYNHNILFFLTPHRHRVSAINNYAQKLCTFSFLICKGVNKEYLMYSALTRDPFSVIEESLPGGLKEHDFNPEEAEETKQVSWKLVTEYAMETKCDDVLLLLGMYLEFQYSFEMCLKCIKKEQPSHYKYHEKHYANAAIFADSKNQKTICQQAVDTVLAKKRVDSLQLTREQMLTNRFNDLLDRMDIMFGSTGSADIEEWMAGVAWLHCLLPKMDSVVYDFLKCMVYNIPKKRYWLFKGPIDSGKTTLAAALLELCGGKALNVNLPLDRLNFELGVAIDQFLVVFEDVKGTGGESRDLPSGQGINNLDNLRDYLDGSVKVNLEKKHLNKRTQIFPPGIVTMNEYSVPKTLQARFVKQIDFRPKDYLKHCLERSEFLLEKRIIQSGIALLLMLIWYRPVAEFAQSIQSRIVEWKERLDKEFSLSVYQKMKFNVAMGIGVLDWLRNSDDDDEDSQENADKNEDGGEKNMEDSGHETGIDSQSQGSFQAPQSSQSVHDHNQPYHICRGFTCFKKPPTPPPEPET
# [22] = Luminescence Cell-Based Dose Retest to Confirm Inhibitors of Cancer Stem Cells. [Related pubchem assays (depositor defined):AID2717, AID2721]; type: functional; details: Homo sapiens
# [23] = system: Vero; experiment: mammalian cell viability reduction – secondary assay, cytotoxicity control for West Nile virus antiviral project, dose response (AID 1650); type: functional; details: Chlorocebus sabaeus
# [24] = system: Vero; experiment: cells; type: functional; details: Chlorocebus sabaeus
smiles,measurement,setting,value
C/C=C/c1ccc([C@H]2[C@@H](CO)N(C(=O)C3CC3)[C@H]2CNC(=O)NC(C)C)cc1,AC50,[1],0.558 µM (active)
CCCCOc1ccc(C(=O)N/N=C/c2ccc(OCCN3CCCCC3)c(OC)c2)cc1,CC50,[2],18.9 µM (active)
same,CC50,[3],16.1 µM (active)
COc1ccc(/C=C/C(=O)Nc2ccc3c(c2)CCC3)cc1OC,CC50,[3],> 50 µM (active)
Nc1nc2c(s1)CCc1c-2cnn1-c1ccccc1,IC50,[4],> 64 µM (inactive)
same,IC50,[5],1.42 µM (active)
CCOC(=O)c1ccc(-c2ccc(/C=N/NC(=O)CN(c3ccccc3Br)S(C)(=O)=O)o2)cc1,CC50,[3],> 50 µM (active)
same,EC50,[6],22.5 µM (active)
same,EC50,[7],17.8 µM (active)
Cc1nnsc1Sc1cccc(C(F)(F)F)c1,AC50,[1],8.67 µM (active)
COc1ccc(-c2nc(N3CCOCC3)nc3n[nH]c(N)c23)cc1,IC50,[8],8.11 µM (active)
Oc1cc(O)c2sc(Nc3ccc(F)cc3)nc2n1,IC50,[5],> 50 µM (not active)
Oc1nc(CSc2ccccn2)nc2c1oc1ccccc12,AC50,[9],6.77 µM (active)
same,AC50,[10],5.23 µM (active)
same,EC50,[11],> 260 µM (inconclusive)
same,AC50,[12],> 52 µM (inactive)
CCNC(=O)Nc1ccc2c(c1)C(=O)N(C)[C@@H]1CC[C@H](CC(=O)NCC3CC3)O[C@@H]1CO2,AC50,[1],0.493 µM (active)
Nc1c(C(=O)N/N=C/c2ccc(OCc3ccccc3)cc2)cnn1-c1ccccc1,EC50,[13],21.9 µM (active)
same,EC50,[14],11.9 µM (active)
same,EC50,[15],> 120 µM (not active)
same,IC50,[16],25.9 µM (inactive)
Cn1c(O)cc(=O)nc1SCC(=O)Nc1ccccc1,AC50,[17],2.82 µM (inconclusive)
same,IC50,[8],17.1 µM (active)
CC1=NOC(=O)/C1=C\c1ccc(-c2ccc(Cl)c(C(=O)O)c2)o1,IC50,[18],141 µM (active)
same,IC50,[19],15.3 µM (active)
same,IC50,[20],17.4 µM (active)
same,IC50,[21],14.2 µM (active)
same,IC50,[5],> 50 µM (not active)
Cc1nc2c([nH]1)OC(N)=C(C#N)C21CCN(Cc2ccccc2)CC1,IC50,[8],63.2 µM (active)
CCCCN1C(=O)C2Cc3c([nH]c4ccccc34)CN2C1=S (stereo not given),CC50,[3],20.8 µM (active)
O=C(c1c[nH]c2ccccc12)C(Cl)c1ccccc1 (stereo not given),AC50,[22],1.74 µM (active)
same,CC50,[23],66.6 µM (active)
same,CC50,[24],> 25 µM (active)
COCCn1c(C)cc(C(=O)CSc2nnnn2C2CCCC2)c1C,AC50,[9],2.78 µM (active)
same,AC50,[10],3.39 µM (active)
